Assay results from ChEMBL document CHEMBL3885881, “DrugMatrix”.

Species on record: Rattus norvegicus
Experiment: DrugMatrix - Regimen: Daily Repeat
Assay type: toxicity, organism-based, Sprague-Dawley
Set-up: regimen Daily Repeat, gender Male, age 6-8 weeks
Settings: in vivo, po, route oral GAVAGE, […]; for ABSOLUTE BASOPHIL / ABSOLUTE EOSINOPHIL / ABSOLUTE LYMPHOCYTE / ABSOLUTE MONOCYTE / ABSOLUTE SEGMENTED NEUTROPHIL / BASOPHIL / EOSINOPHIL / ERYTHROCYTE COUNT / HEMATOCRIT / HEMOGLOBIN / LEUKOCYTE COUNT / LYMPHOCYTE / MEAN CORPUSCULAR HEMOGLOBIN / MEAN CORPUSCULAR HEMOGLOBIN CONCENTRATION / MONOCYTE / NEUTROPHIL / NUCLEATED RED BLOOD CELLS / PLATELET COUNT: tissue Blood; for ALANINE AMINOTRANSFERASE / ALBUMIN / ALKALINE PHOSPHATASE / ASPARTATE AMINOTRANSFERASE / BLOOD UREA NITROGEN / CARBON DIOXIDE / CHLORIDE / CHOLESTEROL / CREATINE PHOSPHOKINASE / CREATININE / LACTATE DEHYDROGENASE / LIPASE / PHOSPHORUS / POTASSIUM / SODIUM / TOTAL BILIRUBIN / TOTAL PROTEIN / URIC ACID: tissue Plasma
[1] = 10 mg/kg, 120 h, dose level Low, time 5 day
[2] = 1800 mg/kg, 72 h, dose level High, time 3 day
[3] = 1800 mg/kg, 120 h, dose level High, time 5 day

With `CN(CCOc1ccc(CC2SC(=O)NC2=O)cc1)c1ccccn1` (stereo not drawn) [ROSIGLITAZONE] the “ABSOLUTE BASOPHIL” value [1] was 0 CELLS/uL, the “ABSOLUTE EOSINOPHIL” value [1] was 76.67 CELLS/uL and the “ABSOLUTE LYMPHOCYTE” value [1] was 6940.67 CELLS/uL. For the same compound, the “ABSOLUTE MONOCYTE” value [1] was 0 CELLS/uL, the “ABSOLUTE SEGMENTED NEUTROPHIL” value [1] was 749.33 CELLS/uL and the BASOPHIL [1] was 0%. For the same compound, the EOSINOPHIL [1] was 1%, the “ERYTHROCYTE COUNT” value [1] was 4.86 x10E6/uL and the HEMATOCRIT [1] was 32.47%. The HEMOGLOBIN [1] was 12.6 G/DL, the “LEUKOCYTE COUNT” value [1] was 7.77 x10E3/uL and the LYMPHOCYTE [1] was 89.33%. For the same compound, the “MEAN CORPUSCULAR HEMOGLOBIN” value [1] was 25.9 pg, the “MEAN CORPUSCULAR HEMOGLOBIN CONCENTRATION” value [1] was 38.83 G/DL and the MONOCYTE [1] was 0%. For the same compound, the NEUTROPHIL [1] was 9.67%, the “NUCLEATED RED BLOOD CELLS” value [1] was 0 /100WBC and the “PLATELET COUNT” value [1] was 1021.33 x10E3/uL. The “ALANINE AMINOTRANSFERASE” value [1] was 62 u/L, the ALBUMIN [1] was 3.97 G/DL and the “ALKALINE PHOSPHATASE” value [1] was 357.67 u/L. The “ASPARTATE AMINOTRANSFERASE” value [1] was 91 u/L, the “BLOOD UREA NITROGEN” value [1] was 16.67 mg/dL and the “CARBON DIOXIDE” value [1] was 33.33 mmol/L. For the same compound, the CHLORIDE [1] was 101 MEQ/L, the CHOLESTEROL [1] was 67.67 mg/dL and the “CREATINE PHOSPHOKINASE” value [1] was 238 u/L. For the same compound, the CREATININE [1] was 0.13 mg/dL, the “LACTATE DEHYDROGENASE” value [1] was 63.33 u/L and the LIPASE [1] was 13.67 u/L. It also gave a PHOSPHORUS [1] of 10.13 mg/dL, a POTASSIUM [1] of 4.62 MEQ/L and an SODIUM [1] of 146.1 MEQ/L. For the same compound, the “TOTAL BILIRUBIN” value [1] was 0.0333 mg/dL, the “TOTAL PROTEIN” value [1] was 5.5 G/DL and the “URIC ACID” value [1] was 0.27 mg/dL. The “ABSOLUTE BASOPHIL” value [2] was 0 CELLS/uL, the “ABSOLUTE EOSINOPHIL” value [2] was 26 CELLS/uL and the “ABSOLUTE LYMPHOCYTE” value [2] was 10365.67 CELLS/uL. The “ABSOLUTE MONOCYTE” value [2] was 125.33 CELLS/uL, the “ABSOLUTE SEGMENTED NEUTROPHIL” value [2] was 983 CELLS/uL and the BASOPHIL [2] was 0%. The EOSINOPHIL [2] was 0.33%, the “ERYTHROCYTE COUNT” value [2] was 5.03 x10E6/uL and the HEMATOCRIT [2] was 31.87%. The HEMOGLOBIN [2] was 12.43 G/DL, the “LEUKOCYTE COUNT” value [2] was 11.5 x10E3/uL and the LYMPHOCYTE [2] was 90.67%. The “MEAN CORPUSCULAR HEMOGLOBIN” value [2] was 24.77 pg, the “MEAN CORPUSCULAR HEMOGLOBIN CONCENTRATION” value [2] was 39.03 G/DL and the MONOCYTE [2] was 0.67%. The NEUTROPHIL [2] was 8.33%, the “NUCLEATED RED BLOOD CELLS” value [2] was 0 /100WBC and the “PLATELET COUNT” value [2] was 1207.33 x10E3/uL. For the same compound, the “ALANINE AMINOTRANSFERASE” value [2] was 77.67 u/L, the ALBUMIN [2] was 3.97 G/DL and the “ALKALINE PHOSPHATASE” value [2] was 304.33 u/L. The “ASPARTATE AMINOTRANSFERASE” value [2] was 99.67 u/L, the “BLOOD UREA NITROGEN” value [2] was 14.67 mg/dL and the “CARBON DIOXIDE” value [2] was 29.33 mmol/L. The CHLORIDE [2] was 103 MEQ/L, the CHOLESTEROL [2] was 44.67 mg/dL and the “CREATINE PHOSPHOKINASE” value [2] was 406.67 u/L. The CREATININE [2] was 0.29 mg/dL, the “LACTATE DEHYDROGENASE” value [2] was 107.33 u/L and the LIPASE [2] was 23.33 u/L. It also gave a PHOSPHORUS [2] of 8.37 mg/dL, a POTASSIUM [2] of 4.78 MEQ/L and an SODIUM [2] of 144.7 MEQ/L. The “TOTAL BILIRUBIN” value [2] was 0.17 mg/dL, the “TOTAL PROTEIN” value [2] was 5.07 G/DL and the “URIC ACID” value [2] was 0.43 mg/dL. The “ABSOLUTE BASOPHIL” value [3] was 0 CELLS/uL, the “ABSOLUTE EOSINOPHIL” value [3] was 16.67 CELLS/uL and the “ABSOLUTE LYMPHOCYTE” value [3] was 4629 CELLS/uL. For the same compound, the “ABSOLUTE MONOCYTE” value [3] was 80.67 CELLS/uL, the “ABSOLUTE SEGMENTED NEUTROPHIL” value [3] was 707 CELLS/uL and the BASOPHIL [3] was 0%. The EOSINOPHIL [3] was 0.33%, the “ERYTHROCYTE COUNT” value [3] was 5.6 x10E6/uL and the HEMATOCRIT [3] was 34.33%. For the same compound, the HEMOGLOBIN [3] was 13.27 G/DL, the “LEUKOCYTE COUNT” value [3] was 5.43 x10E3/uL and the LYMPHOCYTE [3] was 85.33%. For the same compound, the “MEAN CORPUSCULAR HEMOGLOBIN” value [3] was 23.8 pg, the “MEAN CORPUSCULAR HEMOGLOBIN CONCENTRATION” value [3] was 38.7 G/DL and the MONOCYTE [3] was 1.33%. For the same compound, the NEUTROPHIL [3] was 13%, the “NUCLEATED RED BLOOD CELLS” value [3] was 0 /100WBC and the “PLATELET COUNT” value [3] was 1134.33 x10E3/uL. The “ALANINE AMINOTRANSFERASE” value [3] was 160.33 u/L, the ALBUMIN [3] was 3.97 G/DL and the “ALKALINE PHOSPHATASE” value [3] was 307 u/L. The “ASPARTATE AMINOTRANSFERASE” value [3] was 119 u/L, the “BLOOD UREA NITROGEN” value [3] was 16 mg/dL and the “CARBON DIOXIDE” value [3] was 26.67 mmol/L. For the same compound, the CHLORIDE [3] was 98.67 MEQ/L, the CHOLESTEROL [3] was 66.33 mg/dL and the “CREATINE PHOSPHOKINASE” value [3] was 501.67 u/L. The CREATININE [3] was 0.25 mg/dL, the “LACTATE DEHYDROGENASE” value [3] was 115 u/L and the LIPASE [3] was 9.67 u/L. For the same compound, the PHOSPHORUS [3] was 7.87 mg/dL, the POTASSIUM [3] was 4.33 MEQ/L and the SODIUM [3] was 141.6 MEQ/L. The “TOTAL BILIRUBIN” value [3] was 0.2 mg/dL, the “TOTAL PROTEIN” value [3] was 5.1 G/DL and the “URIC ACID” value [3] was 0.3 mg/dL.
